Experimental data: patent US10294246B2, “Substituted boronic acids and boronate esters as immunoproteasome inhibitors” (MERCK PATENT GMBH, priority 2014, dated 2019)

Tests used:
[1] = target: human immunoproteasome (LMP7) (Homo sapiens (Human), UniProt P28062); test: Determination of LMP7 activity (fluorescence intensity assay, Suc-LLVY-AMC); assay type: biochemical; conditions: for Selectivity LMP7 vs Beta5: LMP7 versus Beta5; for IC50: purified human immunoproteasome 0.25 nM, Suc-LLVY-AMC 40 μM
Summary of the method: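 0.25 nM purified human immunoproteasome preincubated 20 min at 25 °C with serially diluted compounds in 50 mM Tris pH 7.4, 0.03% SDS, 1 mM EDTA, 1% DMSO. Reaction started with 40 μM Suc-LLVY-AMC, run 60 min at 37 °C. Fluorescence read at ex 350/em 450 nm.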

[2] = target: human constitutive proteasome (Beta5) (Homo sapiens (Human), UniProt P28074); test: Determination of Beta5 activity (fluorescence intensity assay, Suc-LLVY-AMC); assay type: biochemical; conditions: purified human constitutive proteasome 1.25 nM, Suc-LLVY-AMC 40 μM
Summary of the method: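 Purified constitutive proteasome (1.25 nM) was preincubated with compounds 20 min at 25 °C in 50 mM Tris pH 7.4, 0.03% SDS, 1 mM EDTA, 1% DMSO. Suc-LLVY-AMC (40 μM) was then added for 60 min at 37 °C. AMC fluorescence was read at ex 350/em 450 nm.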

[3] = target: LMP7 subunit of the immunoproteasome (Homo sapiens (Human), UniProt P28062); conditions: Singh et al., Br. J. Hematology 152(2): 155-163; cited from earlier work

Row | Selectivity LMP7 vs Beta5 [1] | IC50 [1] | IC50 [2] | Compound | selectivity for the LMP7 subunit of the immunoproteasome [3]
1 | +++++ (Selectivity ≥ 100) | < 50 nM | 500 to 5000 nM | CCOc1ccc(CC(=O)N[C@@H](C[C@@H]2COc3ccccc32)B(O)O)nc1 [Compound No. 131, [(1R)-2-[(3S)-2,3-dihydrobenzofuran-3-yl]-1-[[2-(5-ethoxy-2-pyridyl)acetyl]amino]ethyl]boronic acid] | –
2 | +++++ (Selectivity ≥ 100) | < 50 nM | 500 to 5000 nM | O=C(Cc1ccccc1)N[C@@H](C[C@@H]1COc2c(Cl)cccc21)B(O)O [Compound No. 132, [(1R)-2-[(3S)-7-chloro-2,3-dihydrobenzofuran-3-yl]-1-[(2-phenylacetyl)amino]ethyl]boronic acid] | –
3 | ++ (10 ≤ Selectivity < 50) | 500 to 5000 nM | > 5000 nM | O=C(Cc1ccccc1)N[C@@H](C[C@H]1COc2c(Cl)cccc21)B(O)O [Compound No. 133, [(1R)-2-[(3R)-7-chloro-2,3-dihydrobenzofuran-3-yl]-1-[(2-phenylacetyl)amino]ethyl]boronic acid] | –
4 | +++++ (Selectivity ≥ 100) | < 50 nM | 500 to 5000 nM | N#Cc1ccccc1CC(=O)N[C@@H](C[C@@H]1COc2c(Cl)cccc21)B(O)O [Compound No. 134, [(1R)-2-[(3S)-7-chloro-2,3-dihydrobenzofuran-3-yl]-1-[[2-(2-cyanophenyl)acetyl]amino]ethyl]boronic acid] | –
5 | +++++ (Selectivity ≥ 100) | 50 to 500 nM | > 5000 nM | N#Cc1ccccc1CC(=O)N[C@@H](C[C@H]1COc2c(Cl)cccc21)B(O)O [Compound No. 135, [(1R)-2-[(3R)-7-chloro-2,3-dihydrobenzofuran-3-yl]-1-[[2-(2-cyanophenyl)acetyl]amino]ethyl]boronic acid] | –
6 | +++++ (Selectivity ≥ 100) | < 50 nM | 50 to 500 nM | O=C(CCOc1ccccc1)N[C@@H](C[C@@H]1COc2ccccc21)B(O)O [Compound No. 136, [(1R)-2-[(3S)-2,3-dihydrobenzofuran-3-yl]-1-(3-phenoxypropanoylamino)ethyl]boronic acid] | –
7 | – | – | – | CC1=C(C(=O)N[C@H](C)C(=O)N[C@@H](Cc2c[nH]c3ccccc23)C(=O)N[C@@H](Cc2ccccc2)C(=O)[C@@]2(C)CO2)Cc2ccccc21 [PR-924] | 100 fold
